# According to patent US20260374809A1, “COMPOUNDS USEFUL FOR THE TREATMENT AND/OR CARE OF THE SKIN, HAIR, NAILS AND/OR MUCOUS MEMBRANES” (Lubrizol Advanced Materials, Inc., priority 2022, published 2026):
# Where a SMILES comes first, the peptide text is derived from it. [ ]: non-standard residue; d: D form. The star is where a group is joined. Palmitoyl = CCCCCCCCCCCCCCCC(=O)*
# Columns and labels:
# [1] = system: Musclebind Like Protein 1 (MBNL1); test: MBNL1 protein expression in human skeletal muscle cells (hSKMC), HTRF; type: cell-based; settings: 0.5 mg/ml, 48 hours, relative to basal control
# Experimental: Musclebind Like Protein 1 (MBNL1) in Human Skeletal Muscle Cells (hSKMC)
# An increase of MBNL-1 in muscle cells helps maintaining the tone of facial skin muscles. Thus, compounds able to enhance MBNL-1 can be used as a good approach for cosmetic treatment of sagging facial appearance.
# Human skeletal muscle cells (hSKMC) were cultured at 100,000 cells in T25 flasks with growth medium. After 4 days, cells reached around 80% of confluency and were seeded at 150,000 cells per well in 12-well plates in growth medium. Cells were incubated for 72 hours and then they were changed to differentiation medium and incubated during 48 hours. At the end of this period, cells were treated with defined peptides (0.5 mg/ml) and with medium alone for control conditions during 48 hours in differentiation medium. Cells were also treated with 2 mM of ketoprofen as a positive control.
# After the incubation period, cells were lysed and frozen at −80 °C. For total protein quantification protein extract was measured by Bicinchoninic Acid (BCA) method. MBNL1 protein detection was performed by Homogeneous Time Resolved Fluorescence (HTRF) technology. Normalization of MBNL1 levels were performed by total protein quantification for each condition. Results are expressed as a relative MBNL1 protein level respect to control conditions. At least 3 replicates were carried out per condition.
# [2] = system: eyebrow; test: In vivo eyebrow lifting effect in Caucasian volunteers (FrameScan image analysis); set-up: species or system human; settings: 28 days; result in words
# Experimental: The study was carried out for 28 days. Forty-six (46) volunteers aged between 40 and 65 years old were included in the study and were divided into two groups. The first group included 36 volunteers (31 women and 5 men) which applied the composition described in Example 5 on half face and placebo (same composition without peptide) on the other half, twice a day for 28 days. The second group of 10 volunteers (9 women and 1 man) used a microcurrent device (Nuface®) with an activator gel without active ingredients once a day. Volunteers using the microcurrent device were trained on how to apply the activator gel and how to use the device to standardize its application among them. […]
# Volunteers' facial images were acquired at initial time and after 28 days of product application. The efficacy of the product was assessed by the measurement of a diagonal distance between eyelashes and eyebrows obtained from image analysis with FrameScan® software. The diagonal distance was calculated by drawing a horizontal line between a point at the start of the eyelashes and a point at the end of eyelashes (the eyelashes' line). […]
# A study was carried out for 28 days for determining the lifting effect of Ac-Asp-Val-Tyr-Lys-NH2 (not according to the invention). […] The eyebrow lifting effect was determined as disclosed in Example 12.
# [3] = system: Human dermal fibroblast (HDF); test: Collagen contraction assay with human dermal fibroblasts in collagen gel; type: cell-based; settings: 0.01 mg/ml; basal control = 100, positive control with MES = 159.7
# Source text: It is known that a remarkable change in the mechanical properties of the skin with aging is due to reduced contractile capacity as well as reduced migration activity of fibroblasts. Healthy fibroblasts induce contraction of the collagen network through physical interactions with collagen fibers. The collagen network is essential for maintaining the firmness of the skin. The collagen contraction assay is a well-known experimental approach to measuring the cell-induced contraction of the extracellular matrix. In this assay, the capacity of fibroblasts, embedded in a collagen-based gel, to reduce the gel diameter is evaluated.
# By improving the contractile forces, the mechanical tension can be improved, which can be associated to “lifting” effect at the scale of fibroblasts.
# The microcurrent system was built by coupling gold electrodes (in order to avoid medium oxidation leading to cell death when current goes through) to opposite sides of 60 mm Petri dishes (separated by 4 cm). When a voltage is applied, an electric field generates between opposite positive and negative poles and current passes through the culture. During the stimulation time (2 hours), each of the 60 mm Petri dishes is connected to a voltage source that allows regulating the amount of current that passes through each of them. For these experiments, a […] current (which corresponds to approx. 67 mV/mm) was used.
# Human dermal fibroblast (HDF) cell culture and expansion: Cells were thawed in T75 flasks and the growth medium was changed every 2 days of cell culture. After 7 days, cells were expanded to obtain a total amount of 7×10^6 cells to be used in the experiments.
# Once finished the expansion, cultures are trypsinized and seeded at 3×10^5 cells/60 mm Petri up to a total of 10 dishes per replicate. These ten dishes correspond to one experiment (Control/-MES vs+MES) at a specific concentration. Peptide treatment was performed at 0.01 mg/ml.
# After an overnight (O/N) incubation to allow cell attachment, each Petri dish is treated at the corresponding concentration with 4 ml of specific medium for a total of 24 hours in both conditions (without MES and with MES). Peptide treatment on the dishes that are not stimulated with microcurrent is initiated 2 hours in advance, and their passage into 3D cultures occurs at the same time as the microcurrent stimulation of the other dishes. […]
# Each 3D culture is prepared by mixing collagen solution with the culture medium corresponding to each of the conditions (without peptide or with peptide). […] Images of collagen gel diameter are taken of each well at 24 hours post detachment and analyzed by ImageJ. […]
# [formula] • An initial area is stablished. […] Area t=0 gel […]1.86 cm^2 (Area of a well in a 24-well plate) • Quantification of Area at t=x; Ax. […]
Compound,% MBNL1 vs Basal control [1] [%],Lifting effect [2],"Collagen contraction, MEAN (comparative peptides) [3]"
"H-ALPVT-OH [PEP-11, H-Ala-Leu-Pro-Val-Thr-OH]",259.0,–,–
"CCCCCCCCCCCCCCCC(=O)N[C@@H](CC(C)C)C(=O)N1CCC[C@H]1C(=O)N[C@H](C(=O)N[C@H](C(=O)O)[C@@H](C)O)C(C)C [PEP-3, Palm-Leu-Pro-Val-Thr-OH] (Palmitoyl-LPVT-OH)",160.4,–,–
"CC(C)C[C@H](N)C(=O)N1CCC[C@H]1C(=O)N[C@H](C(=O)O)C(C)C [PEP-12, H-Leu-Pro-Val-OH] (H-Leu-Pro-Val-OH)",177.8,–,–
"CC(C)C[C@H](N)C(=O)NCC(=O)N[C@H](C(=O)N[C@H](C(=O)O)[C@@H](C)O)C(C)C [PEP-9, H-Leu-Gly-Val-Thr-OH] (H-LGVT-OH)",122.4,–,–
"CC(C)C[C@H](NC(=O)[C@@H]1CCCN1C(=O)[C@@H](N)CC(C)C)C(=O)N[C@H](C(=O)O)[C@@H](C)O [PEP-10, H-Leu-Pro-Leu-Thr-OH] (H-LPLT-OH)",222.0,–,–
"CC(C)C[C@H](N)C(=O)N1CCC[C@H]1C(=O)N[C@H](C(=O)N[C@H](C(N)=O)[C@@H](C)O)C(C)C [PEP-2, H-Leu-Pro-Val-Thr-NH2] (H-LPVT-NH2)",183.2,–,–
CC(=O)N[C@@H](CC(=O)O)C(=O)N[C@H](C(=O)N[C@@H](Cc1ccc(O)cc1)C(=O)N[C@@H](CCCCN)C(N)=O)C(C)C [Ac-Asp-Val-Tyr-Lys-NH2] (Ac-DVYK-NH2),–,did not have a lifting effect,91.6
H-ALKPNT-NH2 [H-Ala-Leu-Lys-Pro-Asn-Thr-NH2],–,–,101.4
"CC(=O)N[C@@H](CC(C)C)C(=O)N1CCC[C@H]1C(=O)N[C@H](C(=O)N[C@H](C(N)=O)[C@@H](C)O)C(C)C [PEP-5, Ac-Leu-Pro-Val-Thr-NH2] (Ac-LPVT-NH2)",213.7,–,–
"CC[C@H](C)[C@H](NC(=O)[C@@H]1CCCN1C(=O)[C@@H](N)CC(C)C)C(=O)N[C@H](C(=O)O)[C@@H](C)O [PEP-7, H-Leu-Pro-Ile-Thr-OH] (H-LPIT-OH)",156.3,–,–
"CC(=O)N[C@@H](CC(C)C)C(=O)N1CCC[C@H]1C(=O)N[C@H](C(=O)N[C@H](C(=O)O)[C@@H](C)O)C(C)C [PEP-4, Ac-Leu-Pro-Val-Thr-OH] (Ac-LPVT-OH)",131.3,–,–
"CC(C)C[C@H](N)C(=O)N[C@@H](C)C(=O)N[C@H](C(=O)N[C@H](C(=O)O)[C@@H](C)O)C(C)C [PEP-6, H-Leu-Ala-Val-Thr-OH] (H-LAVT-OH)",157.0,–,–
CSCC[C@H](NC(=O)[C@@H](CCC(N)=O)NC(=O)[C@H](CCCNC(=N)N)NC(=O)[C@H](CCCNC(=N)N)NC(C)=O)C(=O)N[C@@H](CCC(=O)O)C(=O)N[C@@H](CCC(=O)O)C(N)=O [Ac-Arg-Arg-D-Gln-Met-Glu-Glu-NH2] (Ac-RR[dQ]MEE-NH2),–,–,82.5
"CC(C)[C@H](N)C(=O)N1CCC[C@H]1C(=O)N[C@H](C(=O)N[C@H](C(=O)O)[C@@H](C)O)C(C)C [PEP-8, H-Val-Pro-Val-Thr-OH] (H-VPVT-OH)",131.3,–,–
"CC[C@H](C)[C@H](N)C(=O)N1CCC[C@H]1C(=O)N[C@H](C(=O)N[C@H](C(=O)O)[C@@H](C)O)[C@@H](C)CC [PEP-13, H-Ile-Pro-Ile-Thr-OH] (H-IPIT-OH)",133.3,–,–
